US4239767A, “Antimycotic diaryloxy-imidazolyl-O,N-acetals” (Bayer Aktiengesellschaft, priority 1974, dated 1980)
Converted amounts (≈) assume the structure as drawn.

Key:
[1] = tested on: spores; conditions: prior art / commercially available products; cited from earlier work
[2] = tested on: Trich. ment.; assay: in vitro series dilution test (MIC), Trich. ment.; format: cell-based; conditions: Trichophyton mentagrophytes; 28° C., 24-96 hours, 10^3 germs/ml; read-out: MIC values when used against Trich. ment.
Protocol: (§1) The in vitro test was carried out as a series dilution test. Amount inoculated: 10^3 germs/ml. The nutrient substrates used were Sabouraud's milieu d'epreuve, meat stock/glucose bouillon, malt extract agar and Francis's blood agar. The incubation temperature was 28° C. and the incubation time 24-96 hours.

[3] = tested on: Cand. alb.; assay: in vitro series dilution test (MIC), Cand. alb.; format: cell-based; conditions: 28° C., 24-96 hours, 10^3 germs/ml; read-out: MIC values when used against Cand. alb.
Protocol: as §1

[4] = tested on: Asp. fum.; assay: in vitro series dilution test (MIC), Asp. fum.; format: cell-based; conditions: Aspergillus fumigatus; 28° C., 24-96 hours, 10^3 germs/ml; read-out: MIC values when used against Asp. fum.
Protocol: as §1

[5] = tested on: Torulopsis glab.; assay: in vitro series dilution test (MIC), Torulopsis glab.; format: cell-based; conditions: 28° C., 24-96 hours, 10^3 germs/ml; read-out: MIC values when used against Torulopsis glab.
Protocol: as §1

[6] = tested on: Sporothrix Schenckii; assay: in vitro series dilution test (MIC), Sporothrix Schenckii; format: cell-based; conditions: 28° C., 24-96 hours, 10^3 germs/ml, read-out: MIC values when used against Sporothrix Schenckii
Protocol: as §1

[7] = tested on: candidosis; assay: in vivo action on oral administration, candidosis of mice; conditions: 100 mg/kg of body weight, twice daily, Control 5
Source text: (§2) The table which follows summarizes in the vivo action of the preparations claimed on oral administration--for the models of candidosis of mice and trichophytia of mice--and on local administration--for the model of trichophytia of guinea-pigs.

[8] = tested on: trichophytia; assay: in vivo action on oral administration, trichophytia of mice; design: key: ++++: very good action = no sign of; +++: good action = very slight sign of; ++: action = slight loss of hair; +: slight action = loss of hair, squamation; conditions: 100 mg/kg of body weight, twice daily, Control pronounced dermatophytosis
Source text: as §2

[9] = tested on: trichophytia; assay: in vivo action on local administration, trichophytia of guinea-pigs; design: key: ++++: very good action = no sign of; +++: good action = very slight sign of; ++: action = slight loss of hair; +: slight action = loss of hair, squamation; conditions: 1% strength solution once a day from the 3rd to the 13th day after infection, Control pronounced dermatophytosis
Source text: as §2

[10] = tested on: Trich. ment.; assay: sporocidal action, Trich. ment. spores; format: cell-based, Trichophyton mentagrophytes; conditions: 10 γ of preparation/ml, 72 hours; Control 10^5 = mycelium
Protocol: (§3) About 10^4 spores of Trich. ment. or Trich. Quinckeanum or Aspergillus fumigatus per ml are suspended in physiological NaCl solution and the stated preparations are added in concentrations of 1, 5, 10, 50 and 100 y/ml of suspending solution. The spore suspensions are incubated for 24, 48, 72, 96, 120 and 240 hours, 0.1 ml are withdrawn per concentration and per tube after the stated incubation times and spread homogeneously on malt extract Petri dishes, and the number of spores which still germinate is counted, after 48 hours' incubation time at 28° C., in comparison to untreated controls. The table which follows lists, for the individual preparations, the number of spores which still germinate after an exposure period of 72 hours at preparation concentrations of 10 γ/ml.

[11] = tested on: Aspergillus fum.; assay: sporocidal action, Aspergillus fumigatus spores; format: cell-based; conditions: 10 γ of preparation/ml, 72 hours; Control 10^5 = mycelium
Protocol: as §3

MIC [2] [µg/mL]	MIC [3] [µg/mL]	MIC [4] [µg/mL]	MIC [5] [µg/mL]	MIC [6] [µg/mL]	Structure (SMILES)	Therapeutic activity, candidosis, % survival [7] [%]	Therapeutic activity, trichophytia, oral administration [8]	Therapeutic activity, trichophytia, local application [9]	Number of spores still capable of germination, Trich. ment. [10]	Number of spores still capable of germination, Aspergillus fum. [11]	also measured
					COC1=CC(=O)C[C@@H](C)[C@]12Oc1c(Cl)c(OC)cc(OC)c1C2=O [Griseofulvin]						sporocidal activity [1]: not present
					C[C@@H]1[C@H](O)[C@@H](C)/C=C/C=C/CC/C=C/C=C/C=C/C=C/C(O[C@H]2O[C@H](C)[C@@H](O)[C@H](N)[C@@H]2O)CC2O[C@](O)(CC(O)C(O)CCC(O)CC(O)CC(O)CC(=O)O[C@H]1C)CC(O)C2C(=O)O (stereo partly drawn) [Nystatin]						sporocidal activity [1]: not present
< 1	4 (≈ 10.8 µM)	2 to 4 (≈ 5.39 to 10.8 µM)	4 (≈ 10.8 µM)	0.1 (≈ 0.27 µM)	CC(C)(C)C(O)C(Oc1ccc(-c2ccc(Cl)cc2)cc1)n1ccnc1 (stereo not drawn) [drawing 8]						
< 1	4 (≈ 11.4 µM)	< 1	4 (≈ 11.4 µM)	0.5 (≈ 1.43 µM)	CC(C)(C)C(O)C(Oc1ccc(Cc2ccccc2)cc1)n1ccnc1 (stereo not drawn) [drawing 9]						
< 1	2 to 4 (≈ 4.99 to 9.99 µM)	< 1	4 (≈ 9.99 µM)	0.5 (≈ 1.25 µM)	CC(C)(C)C(O)C(Oc1ccc(S(=O)(=O)c2ccccc2)cc1)n1ccnc1 (stereo not drawn) [drawing 10]						
4 (≈ 8.3 µM)	8 (≈ 16.6 µM)	4 (≈ 8.3 µM)	2 (≈ 4.15 µM)	0.1 (≈ 0.207 µM)	CC(C)(C)C(=O)C(Oc1c(Cl)cc(-c2ccc(Br)cc2)cc1Cl)n1ccnc1 (stereo not drawn) [drawing 11]						
< 1	16 (≈ 45.9 µM)	2 (≈ 5.74 µM)	4 (≈ 11.5 µM)	2 (≈ 5.74 µM)	CC(C)(C)C(=O)C(Oc1ccc(Cc2ccccc2)cc1)n1ccnc1 (stereo not drawn) [drawing 12]						
64 (≈ 161 µM)	4 (≈ 10 µM)	1 (≈ 2.51 µM)	2 (≈ 5.02 µM)	2 (≈ 5.02 µM)	CC(C)(C)C(=O)C(Oc1ccc(S(=O)(=O)c2ccccc2)cc1)n1ccnc1 (stereo not drawn) [drawing 13]						
8 (≈ 15.2 µM)	8 (≈ 15.2 µM)	4 (≈ 7.6 µM)	4 (≈ 7.6 µM)	4 (≈ 7.6 µM)	CC(C)(C)C(=O)C(Oc1c(Cl)cc(-c2ccc(Br)cc2)cc1Br)n1ccnc1 (stereo not drawn) [drawing 14]						
					CC(C)(C)C(O)C(Oc1ccc(-c2ccc(Cl)cc2)cc1)n1ccnc1 (stereo not drawn) [drawing 15]	80	+++	++++			
					CC(C)(C)C(O)C(Oc1ccc(Cc2ccccc2)cc1)n1ccnc1 (stereo not drawn) [drawing 16]	60	++	+++			
					CC(C)(C)C(O)C(Oc1ccc(S(=O)(=O)c2ccccc2)cc1)n1ccnc1 (stereo not drawn) [drawing 17]	80	++	+++			
					CC(C)(C)C(=O)C(Oc1c(Cl)cc(-c2ccc(Br)cc2)cc1Cl)n1ccnc1 (stereo not drawn) [drawing 18]	50	++	+++			
					CC(C)(C)C(=O)C(Oc1ccc(Cc2ccccc2)cc1)n1ccnc1 (stereo not drawn) [drawing 19]	50	+++	++			
					CC(C)(C)C(=O)C(Oc1ccc(S(=O)(=O)c2ccccc2)cc1)n1ccnc1 (stereo not drawn) [drawing 20]	80	++	+++			
					CC(C)(C)C(=O)C(Oc1c(Cl)cc(-c2ccc(Br)cc2)cc1Br)n1ccnc1 (stereo not drawn) [drawing 21]	40	+	++			
					CC(C)(C)C(O)C(Oc1ccc(-c2ccc(Cl)cc2)cc1)n1ccnc1 (stereo not drawn) [drawing 22]				80	35	
					CC(C)(C)C(O)C(Oc1ccc(Cc2ccccc2)cc1)n1ccnc1 (stereo not drawn) [drawing 23]				110	40	
					CC(C)(C)C(O)C(Oc1ccc(S(=O)(=O)c2ccccc2)cc1)n1ccnc1 (stereo not drawn) [drawing 24]				60	70	
					CC(C)(C)C(=O)C(Oc1c(Cl)cc(-c2ccc(Br)cc2)cc1Cl)n1ccnc1 (stereo not drawn) [drawing 25]				90	40	
					CC(C)(C)C(=O)C(Oc1ccc(Cc2ccccc2)cc1)n1ccnc1 (stereo not drawn) [drawing 26]				40	60	
					CC(C)(C)C(=O)C(Oc1ccc(S(=O)(=O)c2ccccc2)cc1)n1ccnc1 (stereo not drawn) [drawing 27]				10^5	70	
					CC(C)(C)C(=O)C(Oc1c(Cl)cc(-c2ccc(Br)cc2)cc1Br)n1ccnc1 (stereo not drawn) [drawing 28]				60	45	
